According to the supplement of paper PMC10307832:

Columns and labels:
Assay in all cases: relative viability (nuclei count vs DMSO), 5 days (fraction); higher = more cells survive
201T = system: 201T
Method in brief: (§1)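 Dosing by pin tool came one day after lung cancer cell lines were seeded in 1536-well plates, using either one drug or a fixed anchor-drug dose plus five library-drug doses (not always all listed) in √10 steps. After 5 days, nuclei were counted on 4× images. Relative viability is treated-well nuclei count divided by vehicle-well nuclei count, and values are medians of duplicate plates.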

ABC-1 = system: ABC-1
Method in brief: as §1

CAL-12T = system: CAL-12T
Method in brief: as §1

COR-L23 = system: COR-L23
Method in brief: as §1

HCC-44 = system: HCC-44
Method in brief: as §1

HOP-62 = system: HOP-62
Method in brief: as §1

LC-2-ad = system: LC-2-ad
Method in brief: as §1

LCLC-103H = system: LCLC-103H
Method in brief: as §1

NCI-H1355 = system: NCI-H1355
Method in brief: as §1

NCI-H1395 = system: NCI-H1395
Method in brief: as §1

NCI-H1651 = system: NCI-H1651
Method in brief: as §1

NCI-H1666 = system: NCI-H1666
Method in brief: as §1

NCI-H1993 = system: NCI-H1993
Method in brief: as §1

NCI-H2085 = system: NCI-H2085
Method in brief: as §1

NCI-H2170 = system: NCI-H2170
Method in brief: as §1

NCI-H2228 = system: NCI-H2228
Method in brief: as §1

NCI-H2347 = system: NCI-H2347
Method in brief: as §1

NCI-H23 = system: NCI-H23
Method in brief: as §1

NCI-H322M = system: NCI-H322M
Method in brief: as §1

NCI-H520 = system: NCI-H520
Method in brief: as §1

NCI-H647 = system: NCI-H647
Method in brief: as §1

NCI-H661 = system: NCI-H661
Method in brief: as §1

NCI-H838 = system: NCI-H838
Method in brief: as §1

SMILES: O=c1[nH]c2ccccc2n1C1CCN(CCCC(c2ccc(F)cc2)c2ccc(F)cc2)CC1 [Pimozide] + Cc1cc(Nc2cc(N3CCN(C)CC3)nc(Sc3ccc(NC(=O)C4CC4)cc3)n2)n[nH]1 [Tozasertib] (partner 0.1 µM)
- relative viability (201T; first compound 0.08 µM): 0.88
- relative viability (201T; first compound 0.253 µM): 0.94
- relative viability (201T; first compound 0.8 µM): 0.871
- relative viability (201T; first compound 2.53 µM): 0.747
- relative viability (201T; first compound 8 µM): 0.636
- relative viability (ABC-1; first compound 0.08 µM): 0.213
- relative viability (ABC-1; first compound 0.253 µM): 0.214
- relative viability (ABC-1; first compound 0.8 µM): 0.184
- relative viability (ABC-1; first compound 2.53 µM): 0.178
- relative viability (ABC-1; first compound 8 µM): 0.203
- relative viability (CAL-12T; first compound 0.08 µM): 0.308
- relative viability (CAL-12T; first compound 0.253 µM): 0.312
- relative viability (CAL-12T; first compound 0.8 µM): 0.308
- relative viability (CAL-12T; first compound 2.53 µM): 0.318
- relative viability (CAL-12T; first compound 8 µM): 0.427
- relative viability (COR-L23; first compound 0.08 µM): 0.194
- relative viability (COR-L23; first compound 0.253 µM): 0.183
- relative viability (COR-L23; first compound 0.8 µM): 0.191
- relative viability (COR-L23; first compound 2.53 µM): 0.153
- relative viability (COR-L23; first compound 8 µM): 0.185
- relative viability (HCC-44; first compound 0.08 µM): 1.16
- relative viability (HCC-44; first compound 0.253 µM): 0.918
- relative viability (HCC-44; first compound 0.8 µM): 0.811
- relative viability (HCC-44; first compound 2.53 µM): 0.499
- relative viability (HCC-44; first compound 8 µM): 0.983
- relative viability (HOP-62; first compound 0.08 µM): 0.344
- relative viability (HOP-62; first compound 0.253 µM): 0.353
- relative viability (HOP-62; first compound 2.53 µM): 0.331
- relative viability (HOP-62; first compound 8 µM): 0.321
- relative viability (LC-2-ad; first compound 0.08 µM): 0.442
- relative viability (LC-2-ad; first compound 0.253 µM): 0.455
- relative viability (LC-2-ad; first compound 0.8 µM): 0.416
- relative viability (LC-2-ad; first compound 2.53 µM): 0.385
- relative viability (LC-2-ad; first compound 8 µM): 0.35
- relative viability (LCLC-103H; first compound 0.08 µM): 0.353
- relative viability (LCLC-103H; first compound 0.253 µM): 0.409
- relative viability (LCLC-103H; first compound 0.8 µM): 0.361
- relative viability (LCLC-103H; first compound 2.53 µM): 0.422
- relative viability (LCLC-103H; first compound 8 µM): 0.446
- relative viability (NCI-H1355; first compound 0.08 µM): 0.569
- relative viability (NCI-H1355; first compound 0.253 µM): 0.534
- relative viability (NCI-H1355; first compound 0.8 µM): 0.462
- relative viability (NCI-H1355; first compound 2.53 µM): 0.376
- relative viability (NCI-H1355; first compound 8 µM): 0.414
- relative viability (NCI-H1395; first compound 0.08 µM): 0.846
- relative viability (NCI-H1395; first compound 0.253 µM): 0.8
- relative viability (NCI-H1395; first compound 0.8 µM): 0.617
- relative viability (NCI-H1395; first compound 2.53 µM): 0.716
- relative viability (NCI-H1395; first compound 8 µM): 0.676
- relative viability (NCI-H1651; first compound 0.08 µM): 0.618
- relative viability (NCI-H1651; first compound 0.253 µM): 0.697
- relative viability (NCI-H1651; first compound 0.8 µM): 0.655
- relative viability (NCI-H1651; first compound 2.53 µM): 0.611
- relative viability (NCI-H1651; first compound 8 µM): 0.567
- relative viability (NCI-H1666; first compound 0.08 µM): 0.628
- relative viability (NCI-H1666; first compound 0.253 µM): 0.571
- relative viability (NCI-H1666; first compound 0.8 µM): 0.648
- relative viability (NCI-H1666; first compound 2.53 µM): 0.559
- relative viability (NCI-H1666; first compound 8 µM): 0.476
- relative viability (NCI-H1993; first compound 0.08 µM): 0.555
- relative viability (NCI-H1993; first compound 0.253 µM): 0.567
- relative viability (NCI-H1993; first compound 0.8 µM): 0.612
- relative viability (NCI-H1993; first compound 2.53 µM): 0.568
- relative viability (NCI-H1993; first compound 8 µM): 0.58
- relative viability (NCI-H2085; first compound 0.08 µM): 0.793
- relative viability (NCI-H2085; first compound 0.253 µM): 0.82
- relative viability (NCI-H2085; first compound 0.8 µM): 0.704
- relative viability (NCI-H2085; first compound 2.53 µM): 0.844
- relative viability (NCI-H2085; first compound 8 µM): 0.736
- relative viability (NCI-H2170; first compound 0.08 µM): 0.752
- relative viability (NCI-H2170; first compound 0.253 µM): 0.734
- relative viability (NCI-H2170; first compound 0.8 µM): 0.651
- relative viability (NCI-H2170; first compound 2.53 µM): 0.653
- relative viability (NCI-H2170; first compound 8 µM): 0.55
- relative viability (NCI-H2228; first compound 0.08 µM): 0.263
- relative viability (NCI-H2228; first compound 0.253 µM): 0.262
- relative viability (NCI-H2228; first compound 0.8 µM): 0.308
- relative viability (NCI-H2228; first compound 2.53 µM): 0.172
- relative viability (NCI-H2228; first compound 8 µM): 0.148
- relative viability (NCI-H2347; first compound 0.253 µM): 0.582
- relative viability (NCI-H2347; first compound 0.8 µM): 0.531
- relative viability (NCI-H2347; first compound 2.53 µM): 0.563
- relative viability (NCI-H2347; first compound 8 µM): 0.578
- relative viability (NCI-H23; first compound 0.08 µM): 0.386
- relative viability (NCI-H23; first compound 0.253 µM): 0.396
- relative viability (NCI-H23; first compound 0.8 µM): 0.348
- relative viability (NCI-H23; first compound 2.53 µM): 0.336
- relative viability (NCI-H23; first compound 8 µM): 0.314
- relative viability (NCI-H322M; first compound 0.253 µM): 0.51
- relative viability (NCI-H322M; first compound 0.8 µM): 0.523
- relative viability (NCI-H322M; first compound 2.53 µM): 0.515
- relative viability (NCI-H322M; first compound 8 µM): 0.425
- relative viability (NCI-H520; first compound 0.08 µM): 0.503
- relative viability (NCI-H520; first compound 0.253 µM): 0.422
- relative viability (NCI-H520; first compound 0.8 µM): 0.42
- relative viability (NCI-H520; first compound 2.53 µM): 0.435
- relative viability (NCI-H520; first compound 8 µM): 0.366
- relative viability (NCI-H647; first compound 0.08 µM): 0.24
- relative viability (NCI-H647; first compound 0.253 µM): 0.327
- relative viability (NCI-H647; first compound 0.8 µM): 0.264
- relative viability (NCI-H647; first compound 2.53 µM): 0.221
- relative viability (NCI-H647; first compound 8 µM): 0.214
- relative viability (NCI-H661; first compound 0.08 µM): 0.354
- relative viability (NCI-H661; first compound 0.253 µM): 0.376
- relative viability (NCI-H661; first compound 0.8 µM): 0.339
- relative viability (NCI-H661; first compound 2.53 µM): 0.35
- relative viability (NCI-H661; first compound 8 µM): 0.316
- relative viability (NCI-H838; first compound 0.08 µM): 0.271
- relative viability (NCI-H838; first compound 0.253 µM): 0.287
- relative viability (NCI-H838; first compound 0.8 µM): 0.31
- relative viability (NCI-H838; first compound 2.53 µM): 0.276
- relative viability (NCI-H838; first compound 8 µM): 0.323
